Results reported in patent publication US8513232B2, “Substituted spirocyclic piperidine derivatives as histamine-3 (H3) receptor ligands” (Cephalon, Inc., priority 2008, dated 2013).

How the values were obtained:
human H3 receptor = target: T1, human H3 receptor (Homo sapiens, UniProt Q9Y5N1); test: Human H3 radioligand binding ([3H]-N-alpha-methylhistamine, SPA); settings: Table A; human H3 binding; read-out: Human Ki
T1 construct: expressed in transfected cells
Procedure: (§1) Methods: CHO cells stably expressing the human H3 receptor (GenBank: NM_007232) were harvested and cell pellets were frozen (−80° C.). Cell pellets were resuspended in 5 mM Tris-HCl, pH 7.5 with […] and a cocktail of protease inhibitors (Complete Protease Inhibitior Tablets, Roche Diagnostics). Cells were disrupted using a polytron cell homogenizer and the suspension was centrifuged at 1000×g for 10 minutes at 4° C. The pellet was discarded and the supernatant centrifuged at 40,000×g for 30 min at 4° C. This membrane pellet was washed in membrane buffer containing 50 mM Tris-HCl, pH 7.5 with 0.6 mM EDTA, 5 mM MgCl2 and protease inhibitors, recentrifuged as above and the final pellet resuspended in membrane buffer plus 250 mM sucrose and frozen at −80° C.
(§2) Radioligand Binding. Membranes were resuspended in 50 mM Tris HCl (pH 7.4), 5 mM MgCl2, 0.1% BSA. The membrane suspensions (10 μg protein per well) were incubated in a 96 well microtiter plate with [^3H]-N-alpha-methylhistamine (approximately 1 nM final concentration), test compounds at various concentrations (0.01 nM-30 μM) and scintillation proximity beads (Perkin Elmer, FlashBlueGPCR Scintillating Beads) in a final volume of 80 μl for 4 hours at room temperature, protected from light. Non-specific binding was determined in the presence of 10 μM clobenpropit. Radioligand bound to receptor, and therefore in proximity to the scintillation beads, was measured using a MicroBeta scintillation counter.

[1] = target: T2, rat histamine H3 receptor (Rattus norvegicus, UniProt Q9QYN8); test: Rat H3 radioligand binding ([3H]-N-alpha-methylhistamine, SPA); settings: Table A; rat H3 binding; read-out: Rat Ki
T2 construct: encoding the entire 445-amino-acid rat histamine H3 receptor; expressed in transfected cells; membrane preparation
Text: as §1, with “Cell line development and membrane preparation. The rat” for “Methods: CHO cells stably expressing the human”, “cDNA was PCR amplified from reverse-transcribed RNA pooled from rat thalamus, hypothalamus, striatum and prefrontal cortex with a sequence corresponding to by #338-1672 of Genbank file #NM_053506, encoding the entire 445-amino-acid rat histamine H3 receptor. This was engineered into the pIRES-neo3 mammalian expression vector, which was stably transfected into the CHO-A3 cell line (Euroscreen, Belgium), followed by clonal selection by limiting dilution. Cells” for “(GenBank: NM_007232)”
as §2

T2 sequence (Q9QYN8 whole entry): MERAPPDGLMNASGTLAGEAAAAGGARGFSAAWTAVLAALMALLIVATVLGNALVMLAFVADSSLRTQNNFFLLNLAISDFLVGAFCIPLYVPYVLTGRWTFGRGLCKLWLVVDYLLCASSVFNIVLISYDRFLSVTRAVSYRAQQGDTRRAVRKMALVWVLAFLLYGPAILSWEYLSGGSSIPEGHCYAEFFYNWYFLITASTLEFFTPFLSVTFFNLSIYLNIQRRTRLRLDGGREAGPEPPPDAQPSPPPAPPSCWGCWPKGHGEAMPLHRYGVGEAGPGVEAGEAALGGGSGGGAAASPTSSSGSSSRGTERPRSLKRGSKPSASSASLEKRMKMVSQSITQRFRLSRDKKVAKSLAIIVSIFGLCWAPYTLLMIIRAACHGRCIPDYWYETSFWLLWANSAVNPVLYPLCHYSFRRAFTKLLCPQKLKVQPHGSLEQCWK
T1 sequence (Q9Y5N1 whole entry): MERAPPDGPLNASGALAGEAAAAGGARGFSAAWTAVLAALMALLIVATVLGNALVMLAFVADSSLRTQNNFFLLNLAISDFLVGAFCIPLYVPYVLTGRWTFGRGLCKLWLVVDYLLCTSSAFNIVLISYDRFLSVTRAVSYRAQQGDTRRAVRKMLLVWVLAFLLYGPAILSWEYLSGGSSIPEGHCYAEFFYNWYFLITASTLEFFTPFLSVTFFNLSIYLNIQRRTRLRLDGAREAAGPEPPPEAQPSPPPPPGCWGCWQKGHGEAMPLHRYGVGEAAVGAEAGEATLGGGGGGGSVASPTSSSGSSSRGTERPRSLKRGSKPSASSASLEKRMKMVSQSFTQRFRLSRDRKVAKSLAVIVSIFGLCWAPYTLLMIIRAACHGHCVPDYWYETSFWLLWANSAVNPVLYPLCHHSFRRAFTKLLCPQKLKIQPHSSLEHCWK

SMILES | Ki (human H3 receptor) [nM] | Ki [1] [nM]
c1ccc2oc(-c3ccc4c(c3)COC3(CCN(C5CCC5)CC3)O4)cc2c1 [Example 6] | 200 to 1000 | –
O=C(c1cccc(-c2ccc3c(c2)COC2(CCN(C4CCC4)CC2)O3)c1)N1CCOCC1 [Example 56] | < 200 | < 200
Nc1cccc(-c2ccc3c(c2)COC2(CCN(C4CCCC4)CC2)O3)c1 [Example 61] | < 200 | –
O=C(Nc1cccc(-c2ccc3c(c2)COC2(CCN(C4CCCC4)CC2)O3)c1)c1ccccc1 [Example 62] | < 200 | –
CC(C)N1CCC2(CC1)OCc1cc(-c3cccc(N)c3)ccc1O2 [Example 63] | < 200 | –
CC(C)N1CCC2(CC1)OCc1cc(-c3ccc4c(c3)CCO4)ccc1O2 [Example 64] | < 200 | –
O=S(=O)(c1ccc(-c2ccc3c(c2)COC2(CCN(C4CCC4)CC2)O3)c(F)c1)N1CCOCC1 [Example 65] | < 200 | < 200
Cc1nc(C)c(-c2ccc3c(c2)COC2(CCN(C4CCC4)CC2)O3)s1 [Example 70] | < 200 | < 200
N#Cc1ccccc1-c1ccc2c(c1)COC1(CCN(C3CCC3)CC1)O2 [Example 73] | < 200 | < 200
N#Cc1ncc(-c2ccc3c(c2)COC2(CCN(C4CCC4)CC2)O3)s1 [Example 75] | < 200 | < 200
N#Cc1ccc(-c2ccc3c(c2)OC2(CCN(C4CCC4)CC2)O3)cc1 [Example 88] | 200 to 1000 | < 200
O=C(c1ccc(-c2ccc3c(c2)OC2(CCN(C4CCC4)CC2)O3)cc1)N1CCOCC1 [Example 89] | < 200 | < 200
O=C(c1cccc(-c2ccc3c(c2)OC2(CCN(C4CCC4)CC2)O3)c1)N1CCOCC1 [Example 91] | < 200 | < 200
N#Cc1cccc(-c2ccc3c(c2)OC2(CCN(C4CCC4)CC2)O3)c1 [Example 92] | 200 to 1000 | > 1000
O=C(c1cccc(-c2ccc3c(c2)OC2(CCN(C4CCC4)CC2)OC3)c1)N1CCCC1 [Example 94] | 200 to 1000 | 200 to 1000
O=C(c1ccc(-c2ccc3c(c2)CCC2(CCN(C4CCC4)CC2)O3)cc1)N1CCOCC1 [Example 99] | < 200 | < 200
CCOc1ccc(-c2ccc3c(c2)CCC2(CCN(C4CCC4)CC2)O3)cn1 [Example 100] | < 200 | < 200

SMILES | Ki (human H3 receptor) [nM] | Ki [1] [nM]
CS(=O)(=O)c1ccc(-c2ccc3c(c2)CCC2(CCN(C4CCC4)CC2)O3)cc1 [Example 101] | < 200 | < 200
c1ccc(-c2ccc3c(c2)CCC2(CCN(C4CCC4)CC2)O3)cc1 [Example 102] | < 200 | < 200
O=S(=O)(c1ccc(-c2ccc3c(c2)CCC2(CCN(C4CCC4)CC2)O3)cc1)N1CCCC1 [Example 103] | < 200 | < 200
COc1ncc(-c2ccc3c(c2)CCC2(CCN(C4CCC4)CC2)O3)cn1 [Example 104] | < 200 | < 200
FC(F)(F)Oc1ccc(-c2ccc3c(c2)CCC2(CCN(C4CCC4)CC2)O3)cc1 [Example 105] | < 200 | 200 to 1000
CNC(=O)c1ccc(-c2ccc3c(c2)CCC2(CCN(C4CCC4)CC2)O3)cc1 [Example 106] | < 200 | < 200
c1ncc(-c2ccc3c(c2)CCC2(CCN(C4CCC4)CC2)O3)cn1 [Example 107] | < 200 | < 200
CN(C)c1ncc(-c2ccc3c(c2)CCC2(CCN(C4CCC4)CC2)O3)cn1 [Example 108] | < 200 | < 200
O=C(NC1CC1)c1ccc(-c2ccc3c(c2)CCC2(CCN(C4CCC4)CC2)O3)cc1 [Example 109] | < 200 | < 200
N#Cc1ccc(-c2ccc3c(c2)CCC2(CCN(C4CCC4)CC2)O3)cc1 [Example 110] | < 200 | < 200
Cn1cc(-c2ccc3c(c2)CCC2(CCN(C4CCC4)CC2)O3)cn1 [Example 111] | < 200 | < 200
c1cc2c(cc1-c1ccc3nonc3c1)CCC1(CCN(C3CCC3)CC1)O2 [Example 112] | < 200 | < 200
NC(=O)c1ccc(-c2ccc3c(c2)CCC2(CCN(C4CCC4)CC2)O3)cc1 [Example 113] | < 200 | < 200
c1cc2c(cc1-c1cn[nH]c1)CCC1(CCN(C3CCC3)CC1)O2 [Example 114] | < 200 | < 200
CNC(=O)c1ccc(-c2ccc3c(c2)CCC2(CCN(C4CCC4)CC2)O3)cc1F [Example 115] | < 200 | < 200
NS(=O)(=O)c1ccc(-c2ccc3c(c2)CCC2(CCN(C4CCC4)CC2)O3)cc1 [Example 116] | < 200 | < 200

Other lines, results leading:

Ki (human H3 receptor) [nM] | Ki [1] [nM] | SMILES
< 200 | < 200 | Fc1ccc(-c2ccc3c(c2)COC2(CCN(C4CCC4)CC2)O3)cn1 [Example 1]
< 200 | < 200 | c1cc2c(cc1-c1ccc3c(c1)COC1(CCN(C4CCC4)CC1)O3)CCO2 [Example 2]
< 200 | < 200 | N#Cc1ccc(-c2ccc3c(c2)COC2(CCN(C4CCC4)CC2)O3)cc1 [Example 3]
< 200 | < 200 | c1cncc(-c2ccc3c(c2)COC2(CCN(C4CCC4)CC2)O3)c1 [Example 7]
< 200 | < 200 | O=C(c1ccc(-c2ccc3c(c2)COC2(CCN(C4CCC4)CC2)O3)cc1)N1CCCC1 [Example 8]
< 200 | < 200 | O=C(c1ccc(-c2ccc3c(c2)COC2(CCN(C4CCC4)CC2)O3)cc1)N1CCOCC1 [Example 9]
< 200 | < 200 | c1cc(-c2ccc3c(c2)COC2(CCN(C4CCC4)CC2)O3)ccn1 [Example 10]
< 200 | < 200 | CCOc1ccc(-c2ccc3c(c2)COC2(CCN(C4CCC4)CC2)O3)cn1 [Example 11]
< 200 | < 200 | c1csc(-c2ccc3c(c2)COC2(CCN(C4CCC4)CC2)O3)c1 [Example 12]
< 200 | < 200 | c1cc(-c2ccc3c(c2)COC2(CCN(C4CCC4)CC2)O3)cs1 [Example 13]
< 200 | < 200 | O=C(NC1CC1)c1ccc(-c2ccc3c(c2)COC2(CCN(C4CCC4)CC2)O3)cc1 [Example 14]
< 200 | < 200 | O=S(=O)(c1ccc(-c2ccc3c(c2)COC2(CCN(C4CCC4)CC2)O3)cc1)N1CCCC1 [Example 16]
< 200 | < 200 | O=S(=O)(c1ccc(-c2ccc3c(c2)COC2(CCN(C4CCC4)CC2)O3)cc1)N1CCOCC1 [Example 17]
< 200 | < 200 | NC(=O)c1ccc(-c2ccc3c(c2)COC2(CCN(C4CCC4)CC2)O3)cc1 [Example 18]
< 200 | < 200 | CCS(=O)(=O)c1ccc(-c2ccc3c(c2)COC2(CCN(C4CCC4)CC2)O3)cc1 [Example 20]
< 200 | < 200 | CS(=O)(=O)c1ccc(-c2ccc3c(c2)COC2(CCN(C4CCC4)CC2)O3)cc1 [Example 21]
< 200 | < 200 | COc1ncc(-c2ccc3c(c2)COC2(CCN(C4CCC4)CC2)O3)cn1 [Example 23]
< 200 | < 200 | O=S(=O)(c1ccc(-c2ccc3c(c2)COC2(CCN(C4CCC4)CC2)O3)cc1)N1CCC1 [Example 24]
< 200 | < 200 | O=S(=O)(NC1CC1)c1ccc(-c2ccc3c(c2)COC2(CCN(C4CCC4)CC2)O3)cc1 [Example 25]
< 200 | < 200 | CN(C)S(=O)(=O)c1ccc(-c2ccc3c(c2)COC2(CCN(C4CCC4)CC2)O3)cc1 [Example 32]
< 200 | < 200 | NC(=O)Cc1ccc(-c2ccc3c(c2)COC2(CCN(C4CCC4)CC2)O3)cc1 [Example 49]
< 200 | < 200 | Nc1cccc(-c2ccc3c(c2)COC2(CCN(C4CCC4)CC2)O3)c1 [Example 51]
< 200 | < 200 | NC(=O)Nc1cccc(-c2ccc3c(c2)COC2(CCN(C4CCC4)CC2)O3)c1 [Example 52]
< 200 | < 200 | O=C(c1cccc(-c2ccc3c(c2)COC2(CCN(C4CCC4)CC2)O3)c1)N1CCCCC1 [Example 53]
< 200 | < 200 | O=C(NC1CC1)c1cccc(-c2ccc3c(c2)COC2(CCN(C4CCC4)CC2)O3)c1 [Example 55]
